Laboratory results from US11998539B2, “Substituted aminoquinolones as DGKalpha inhibitors for immune activation” (Bayer Aktiengesellschaft, priority 2019, dated 2024).

Molecular target: DGKα (Homo sapiens (Human), UniProt P23743)
Test: Human DGKα kinase activity inhibition assay (ADP-Glo)
Assay type: biochemical
Conditions: recombinant full-length human DGKα, 55 μM ATP, 7 μM 1,2-dioleoyl-sn-glycerol, read-out: IC50 values of examples in in vitro human DGKa kinase activity inhibition assays
Outline: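 Activity was measured as ADP production, detected by luciferase luminescence after removal of unused ATP. The enzyme was baculovirus-expressed full-length human DGKα with a C-terminal FLAG tag. The substrate was 1,2-dioleoyl-sn-glycerol in detergent micelles, and compounds came from 100× DMSO solutions.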

Chain of DGKα (P23743 other isoform, or with tags, fused parts or gaps): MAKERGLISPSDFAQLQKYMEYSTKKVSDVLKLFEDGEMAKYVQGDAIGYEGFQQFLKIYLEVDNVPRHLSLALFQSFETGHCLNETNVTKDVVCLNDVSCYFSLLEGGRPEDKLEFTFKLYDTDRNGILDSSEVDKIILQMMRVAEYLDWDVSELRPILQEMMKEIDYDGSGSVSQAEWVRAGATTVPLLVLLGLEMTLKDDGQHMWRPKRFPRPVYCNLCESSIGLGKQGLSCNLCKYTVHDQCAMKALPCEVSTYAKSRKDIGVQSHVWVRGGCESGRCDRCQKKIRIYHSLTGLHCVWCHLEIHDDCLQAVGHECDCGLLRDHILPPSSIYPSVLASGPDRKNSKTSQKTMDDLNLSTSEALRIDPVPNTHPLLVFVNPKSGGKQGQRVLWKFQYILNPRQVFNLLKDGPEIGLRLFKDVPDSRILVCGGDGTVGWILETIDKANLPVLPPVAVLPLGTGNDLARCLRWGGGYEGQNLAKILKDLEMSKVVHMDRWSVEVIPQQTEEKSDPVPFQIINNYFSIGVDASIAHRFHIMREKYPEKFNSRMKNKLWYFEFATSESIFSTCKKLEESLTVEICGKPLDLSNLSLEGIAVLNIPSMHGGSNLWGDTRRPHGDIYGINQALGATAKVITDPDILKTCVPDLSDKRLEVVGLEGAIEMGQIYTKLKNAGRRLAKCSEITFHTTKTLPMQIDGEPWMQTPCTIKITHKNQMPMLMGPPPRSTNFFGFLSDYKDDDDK

| Structure (SMILES) | IC50 |
| --- | --- |
| Cc1ccccc1-c1nnc(C2CCN(c3c(C#N)c(=O)n(C)c4cc(O)c(Br)cc34)CC2)o1 [Example 445, 6-bromo-7-hydroxy-1-methyl-4-{4-[5-(2-methylphenyl)-1,3,4-oxadiazol-2-yl]piperidin-1-yl}-2-oxo-1,2-dihydroquinoline-3-carbonitrile] | 44 nM |
| CNC(=O)c1c(N2CCC(c3nc4ccccc4o3)CC2)c2ccccc2n(C)c1=O [Example 447, 4-[4-(1,3-benzoxazol-2-yl)piperidin-1-yl]-N,1-dimethyl-2-oxo-1,2-dihydroquinoline-3-carboxamide] | 63 nM |
| CNC(=O)c1c(N2CCC(c3nc4cc(C)ccc4o3)CC2)c2ccccc2n(C)c1=O [Example 448, N,1-dimethyl-4-[4-(5-methyl-1,3-benzoxazol-2-yl)piperidin-1-yl]-2-oxo-1,2-dihydroquinoline-3-carboxamide] | 27 nM |
| CNC(=O)c1c(N2CCC(C)(c3nc4ccccc4o3)CC2)c2ccccc2n(C)c1=O [Example 449, 4-[4-(1,3-benzoxazol-2-yl)-4-methylpiperidin-1-yl]-N,1-dimethyl-2-oxo-1,2-dihydroquinoline-3-carboxamide] | 13 nM |
| Cn1c(=O)c(C(N)=O)c(N2CCC(c3nc4cc(N5CCCC5=O)ccc4o3)CC2)c2ccccc21 [Example 450, 1-methyl-2-oxo-4-{4-[5-(2-oxopyrrolidin-1-yl)-1,3-benzoxazol-2-yl]piperidin-1-yl}-1,2-dihydroquinoline-3-carboxamide] | 119 nM |
| COC1(c2cccc(Cl)c2)CCN(c2c(C(N)=O)c(=O)n(C)c3ccccc23)CC1 [Example 451, 4-[4-(3-chlorophenyl)-4-methoxypiperidin-1-yl]-1-methyl-2-oxo-1,2-dihydroquinoline-3-carboxamide] | 163 nM |
| Cc1ccc2oc(C3(C)CCN(c4c(C(N)=O)c(=O)n(C)c5ccc(P(C)(C)=O)cc45)CC3)nc2c1 [Example 452, 6-(dimethylphosphoryl)-1-methyl-4-[4-methyl-4-(5-methyl-1,3-benzoxazol-2-yl)piperidin-1-yl]-2-oxo-1,2-dihydroquinoline-3-carboxamide] | 2570 nM |
| Cc1ccc2oc(C3CCN(c4c(C(N)=O)c(=O)n(C)c5ccc(P(C)(C)=O)cc45)CC3)nc2c1 [Example 453, 6-(dimethylphosphoryl)-1-methyl-4-[4-(5-methyl-1,3-benzoxazol-2-yl)piperidin-1-yl]-2-oxo-1,2-dihydroquinoline-3-carboxamide] | 598 nM |
| Cc1ccc2oc(C3CCN(c4c(C(N)=O)c(=O)n(C)c5ccc(S(C)(=O)=O)cc45)CC3)nc2c1 [Example 454, 6-(methanesulfonyl)-1-methyl-4-[4-(5-methyl-1,3-benzoxazol-2-yl)piperidin-1-yl]-2-oxo-1,2-dihydroquinoline-3-carboxamide] | 373 nM |
| COC1(c2cc3ccccc3s2)CCN(c2c(C(N)=O)c(=O)n(C)c3ccccc23)CC1 [Example 455, 4-[4-(1-benzothiophen-2-yl)-4-methoxypiperidin-1-yl]-1-methyl-2-oxo-1,2-dihydroquinoline-3-carboxamide] | 1.9 nM |
| Cn1c(=O)c(C(N)=O)c(N2CCC(O)(c3cc4ccccc4s3)CC2)c2ccccc21 [Example 456, 4-[4-(1-benzothiophen-2-yl)-4-hydroxypiperidin-1-yl]-1-methyl-2-oxo-1,2-dihydroquinoline-3-carboxamide] | 41 nM |
| COc1ccc2cc(C3CCN(c4c(C(N)=O)c(=O)n(C)c5ccccc45)CC3)ccc2c1 [Example 457, 4-[4-(6-methoxynaphthalen-2-yl)piperidin-1-yl]-1-methyl-2-oxo-1,2-dihydroquinoline-3-carboxamide] | 6.8 nM |
| Cc1ccccc1-c1noc(C2CCN(c3c(C(N)=O)c(=O)n(C)c4ccccc34)CC2)n1 [Example 458, 1-methyl-4-{4-[3-(2-methylphenyl)-1,2,4-oxadiazol-5-yl]piperidin-1-yl}-2-oxo-1,2-dihydroquinoline-3-carboxamide] | 4.3 nM |
| COc1ccc(-c2noc(C3CCN(c4c(C(N)=O)c(=O)n(C)c5ccccc45)CC3)n2)cc1 [Example 459, 4-{4-[3-(4-methoxyphenyl)-1,2,4-oxadiazol-5-yl]piperidin-1-yl}-1-methyl-2-oxo-1,2-dihydroquinoline-3-carboxamide] | 9.8 nM |
| Cc1cccc(-c2noc(C3CCN(c4c(C(N)=O)c(=O)n(C)c5ccccc45)CC3)n2)c1 [Example 460, 1-methyl-4-{4-[3-(3-methylphenyl)-1,2,4-oxadiazol-5-yl]piperidin-1-yl}-2-oxo-1,2-dihydroquinoline-3-carboxamide] | 3.5 nM |
| Cc1ccccc1-c1nnc(C2CCN(c3c(C(N)=O)c(=O)n(C)c4ccccc34)CC2)o1 [Example 461, 1-methyl-4-{4-[5-(2-methylphenyl)-1,3,4-oxadiazol-2-yl]piperidin-1-yl}-2-oxo-1,2-dihydroquinoline-3-carboxamide] | 77 nM |
| Cc1ccc(-c2nnc(C3CCN(c4c(C(N)=O)c(=O)n(C)c5ccccc45)CC3)o2)cc1 [Example 462, 1-methyl-4-{4-[5-(4-methylphenyl)-1,3,4-oxadiazol-2-yl]piperidin-1-yl}-2-oxo-1,2-dihydroquinoline-3-carboxamide] | 121 nM |

| Structure (SMILES) | IC50 |
| --- | --- |
| Cc1cccc(-c2nnc(C3CCN(c4c(C(N)=O)c(=O)n(C)c5ccccc45)CC3)o2)c1 [Example 463, 1-methyl-4-{4-[5-(3-methylphenyl)-1,3,4-oxadiazol-2-yl]piperidin-1-yl}-2-oxo-1,2-dihydroquinoline-3-carboxamide] | 113 nM |
| Cn1c(=O)c(C(N)=O)c(N2CCC(c3nnc(-c4cccc(Cl)c4)o3)CC2)c2ccccc21 [Example 464, 4-{4-[5-(3-chlorophenyl)-1,3,4-oxadiazol-2-yl]piperidin-1-yl}-1-methyl-2-oxo-1,2-dihydroquinoline-3-carboxamide] | 123 nM |
| Cn1c(=O)c(C(N)=O)c(N2CCC(C)(c3nnc(-c4cccc(Cl)c4)o3)CC2)c2ccccc21 [Example 465, 4-{4-[5-(3-chlorophenyl)-1,3,4-oxadiazol-2-yl]-4-methylpiperidin-1-yl}-1-methyl-2-oxo-1,2-dihydroquinoline-3-carboxamide] | 175 nM |
| CC1Cc2cc(C3CCN(c4c(C(N)=O)c(=O)n(C)c5ccccc45)CC3)ccc2O1 (stereo not drawn) [Example 466, 1-methyl-4-{4-[2-methyl-2,3-dihydro-1-benzofuran-5-yl]piperidin-1-yl}-2-oxo-1 2-dihydroquinoline-3-carboxamide] | 0.5 nM |
| Cn1c(=O)c(C(N)=O)c(N2CCC(c3ccc4c(c3)CC(O)C4)CC2)c2ccccc21 (stereo not drawn) [Example 467, 4-[4-(2-hydroxy-2,3-dihydro-1H-inden-5-yl)piperidin-1-yl]-1-methyl-2-oxo-1,2-dihydroquinoline-3-carboxamide] | 3.9 nM |
| Cn1c(=O)c(C(N)=O)c(N2CCC(c3ccc4c(c3)C3(CCC3)C(=O)N4)CC2)c2ccccc21 [Example 469, 1-methyl-2-oxo-4-[4-(2′-oxo-1′,2′-dihydrospiro[cyclobutane-1,3′-indol]-5′-yl)piperidin-1-yl]-1,2-dihydroquinoline-3-carboxamide] | 33 nM |
| Cc1cc(C2(C)CCN(c3c(C(N)=O)c(=O)n(C)c4ccccc34)CC2)nc2ccccc12 [Example 470, 1-methyl-4-[4-methyl-4-(4-methylquinolin-2-yl)piperidin-1-yl]-2-oxo-1,2-dihydroquinoline-3-carboxamide] | 13 nM |
| Cn1ccc2c(F)cc(C3CCN(c4c(C(N)=O)c(=O)n(C)c5ccccc45)CC3)cc21 [Example 471, 4-[4-(4-fluoro-1-methyl-1H-indol-6-yl)piperidin-1-yl]-1-methyl-2-oxo-1,2-dihydroquinoline-3-carboxamide] | 3.9 nM |
| Cc1cccc(-n2ccc(C3CCN(c4c(C(N)=O)c(=O)n(C)c5ccccc45)CC3)n2)c1 [Example 472, 1-methyl-4-{4-[1-(3-methylphenyl)-1H-pyrazol-3-yl]piperidin-1-yl}-2-oxo-1,2-dihydroquinoline-3-carboxamide] | 6.7 nM |
| Cc1ccccc1-n1ccc(C2CCN(c3c(C(N)=O)c(=O)n(C)c4ccccc34)CC2)n1 [Example 473, 1-methyl-4-{4-[1-(2-methylphenyl)-1H-pyrazol-3-yl]piperidin-1-yl}-2-oxo-1,2-dihydroquinoline-3-carboxamide] | 23 nM |
| Cn1c(=O)c(C(N)=O)c(N2CCC(c3ccn(-c4cccc(Cl)c4)n3)CC2)c2ccccc21 [Example 474, 4-{4-[1-(3-chlorophenyl)-1H-pyrazol-3-yl]piperidin-1-yl}-1-methyl-2-oxo-1,2-dihydroquinoline-3-carboxamide] | 4.6 nM |
| Cn1c(=O)c(C(N)=O)c(N2CCC(c3nc(-c4cccnc4)no3)CC2)c2ccccc21 [Example 475, 1-methyl-2-oxo-4-{4-[3-(pyridin-3-yl)-1,2,4-oxadiazol-5-yl]piperidin-1-yl}-1,2-dihydroquinoline-3-carboxamide] | 224 nM |
| COc1cccc(-c2csc(C3CCN(c4c(C(N)=O)c(=O)n(C)c5ccccc45)CC3)n2)c1 [Example 476, 4-{4-[4-(3-methoxyphenyl)-1,3-thiazol-2-yl]piperidin-1-yl}-1-methyl-2-oxo-1,2-dihydroquinoline-3-carboxamide] | 7.1 nM |
| COc1ccccc1-c1csc(C2CCN(c3c(C(N)=O)c(=O)n(C)c4ccccc34)CC2)n1 [Example 477, 4-{4-[4-(2-methoxyphenyl)-1,3-thiazol-2-yl]piperidin-1-yl}-1-methyl-2-oxo-1,2-dihydroquinoline-3-carboxamide] | 3.9 nM |
| Cc1ccc(-c2csc(C3CCN(c4c(C(N)=O)c(=O)n(C)c5ccccc45)CC3)n2)cc1 [Example 478, 1-methyl-4-{4-[4-(4-methylphenyl)-1,3-thiazol-2-yl]piperidin-1-yl}-2-oxo-1,2-dihydroquinoline-3-carboxamide] | 9.4 nM |
| Cc1ccc2oc(C3CCN(c4c(C(N)=O)c(=O)n(C)c5cc(OC6CCOCC6)ccc45)CC3)nc2c1 [Example 479, 1-methyl-4-[4-(5-methyl-1,3-benzoxazol-2-yl)piperidin-1-yl]-7-[(oxan-4-yl)oxy]-2-oxo-1,2-dihydroquinoline-3-carboxamide] | 59 nM |
